Counter-ions that a name gives are not always drawn.

The first experiment has as its system Type IV PDE. The experiment can be described thus: PDE IV inhibition: hydrolysis of [3H]-cyclic AMP by isolated Type IV PDE. In kind it is biochemical, bovine. Conditions: adenines, Table 4; cyclic AMP 0.2 μM; read-out: calc PDE IV IC50. How it is done: The Type IV PDE is isolated from bovine tracheal smooth muscle using a procedure similar to that previously described by Silver, P. J., Hamel, L. T., Perrone, M. H. Bentley, R. G. Bushover, C. R., Evans, D. B.: Eur. J. Pharmacol. 150:85,1988.(1). Briefly, smooth muscle from bovine trachea is minced and homogenized using a polytron in 10 volumes of an extraction buffer containinhg 10 mM Tris-acetate (pH 7.5), 2 mM magnesium chloride, 1 mM dithiothreitol and 2,000 units/ml of aprotinin. This and all subsequent procedures are performed at 0-4° C. The homogenate is sonicated and then centrifiged at 48,000×g for 30 minutes. The resulting supernatant is applied to a DEAE Trisacryl M column previously equilibrated with sodium acetate and dithiothreitol. After applications of the sample, the column is washed with sodium acetate/dithiothreitol, after which the different forms of PDE are eluted from the column using a linear Tris-HCl/NaCl gradient. Fractions containing Type IV PDE are collected, dialyzed and concentrated to 14% of the original volume. The concentrated fractions are diluted to 50% with ethylene glycol and stored at -20° C.
Enzyme activity is assessed by measuring the hydrolysis of [^3H]-cyclic AMP, as described by Thompson, W. J., Teraski, W. L., Epstein, P. N., Strada, S. J.: Adv. Cyclic Nucleotide Res. 10:69, 1979. The cyclic AMP concentration used in this assay is 0.2 μM, which approximates the Km value. Protein concentration is adjusted to ensure that no more than 15% of the available substrate is hydrolyzed during the incubation period.
All test compounds are dissolved in dimethyl sulfoxide (final concentration of 2.5%). This concentration of dimethyl sulfoxide inhibits enzyme activity by approximately 10%.
On to `CCCn1cnc(NC2CC2)c2nc(C3CC3)nc1-2` [8-cyclopropyl-6-cyclopropylamino-3-propyl-3H-purine hydrochloride], for which the IC50 was 7.9 µM. On the same count and under the same terms, the value for `CCCNc1ncn(CC)c2nc(C3CC3)nc1-2` [8-cyclopropyl-3-ethyl-6-propylamino-3H-purine hydrochloride] was 15.7 µM; that for `CCCCCCn1cnc(NC)c2ncnc1-2` [3-hexyl-6-methylamino-3H-purine hydrochloride] was 34.1 µM; that for `CCNc1ncn(CC2CC2)c2nc(C3CC3)nc1-2` [8-cyclopropyl-3-cyclopropylmethyl-6-ethylamino-3H-purine hydrochloride] was 4.11 µM. Turning to `CCn1cnc(NCc2ccccc2)c2nc(C(C)C)nc1-2` [3-ethyl-8-isopropyl-6-benzylamino-3H-purine hydrochloride], the IC50 is 28.9 µM. Turning to `CCNc1ncn(CC)c2nc(Cc3ccc(OC)c(OC4CCCC4)c3)nc1-2` [8-(3-Cyclopentyloxy-4-methoxybenzyl)-3-ethyl-6-ethylamino-3H-purine Hydrochloride], the IC50 is 4.52 µM. In the case of `CCNc1ncn(CC)c2nc(C3CCCC3)nc1-2` [3-ethyl-8-cyclopentyl-6-ethylamino-3H-purine hydrochloride], the IC50 is 28.3 µM.

The same experiment, now with this note: adenines, Table 7; read-out: calc PDE IV IC50.
`COc1ccc(CNc2ncn(Cc3ccc(OC)c(OC4CCCC4)c3)c3nc(C(C)C)nc2-3)cc1OC1CCCC1` [3-(3-cyclopentyloxy-4-methoxybenzyl)-6-(3-cyclopentyloxy-4-methoxybenzylamino)-8-isopropyl-3H-purine]: the IC50 is 1.14 µM. For `CCNc1ncn(Cc2ccc(F)cc2)c2nc(C(C)C)nc1-2` [6-ethylamino-3-(4-fluorobenzyl)-8-isopropyl-3H-purine], the IC50 was 1.85 µM.

`CCCCOc1cc(Cn2cnc(NCC)c3nc(C(C)C)nc2-3)ccc1OC` [6-Ethylamino-3-(3-butoxy-4-methoxy-benzyl)-8-isopropyl-3H purine]: the IC50 was 1.4 µM.

`CCNc1ncn(Cc2ccc(OC)c(OCc3ccncc3)c2)c2nc(C(C)C)nc1-2` [6-Ethylamino-8-isopropyl-3-[3-(pyridin-4-yl-methoxy)-4-methoxy-benzyl]-3H-purine]: the IC50 was 24.5 µM.

As for `CCNc1ncn(Cc2ccc(OC)c(OC3CCCCC3)c2)c2nc(C(C)C)nc1-2` [3-[3-Cyclohexanyl-4-oxy-4-methoxy-benzyl]-6-ethylamino-8-isopropyl-3H-purine], the IC50 is 8.28 µM.

For the compound `CCNc1ncn(Cc2ccc(OC)c(OC3CCCC3)c2)c2nc(C(C)(C)O)nc1-2` [3-[(3-cyclopentyloxy-4-methoxy)benzyl]-8-[(1-methyl-1-hydrox] [3-[(3-cyclopentyloxy-4-methoxy)benzyl]-8-[(1-methyl-1-hydroxy)ethyl]-6-ethylamino-3H-purine], the IC50 is 3.1 µM. As for `CCNc1ncn(Cc2ccc(OC)c(OC3CCCC3)c2)c2nc(C(C)C)nc1-2` [6-ethylamino-3-[(3-cyclopentyloxy-4-methoxy)benzyl]-8-isopropyl-3H-purine], the IC50 is 0.66 µM. Still for that read-out and setting: then `CC(C)c1nc2c(N)ncn(Cc3ccc(Cl)cc3)c-2n1` [6-amino-3-(4-chlorobenzyl)-8-isopropyl-3H-purine], with 20.8 µM. On to `CCNc1ncn(Cc2ccc(OC)c(OC3CN4CCC3CC4)c2)c2nc(C(C)C)nc1-2` (stereo not shown) [6-Ethylamino-3-[3-(2,2,2)-azabicyclooctan-3-yloxy)-4-methoxy]-8-isopropyl-3H-purine], for which the IC50 is 2.05 µM. With `COc1ccc(Cn2cnc(N)c3nc(C(C)C)nc2-3)cc1OCCCCO` [6-amino-8-isopropyl-3-[(4-methoxy-3-([(4-hydroxybutoxy))benzyl]-3H-purine], the IC50 was 4.2 µM. As to `CCNc1nc(NCC)n(Cc2ccc(Cl)cc2)c2nc(C(C)C)nc1-2` [3-(4-chlorobenzyl)-2,6-di(ethylamino)-8-isopropyl-3H-purine], the IC50 was 11.2 µM.

Take `CC(C)c1nc2c(N)ncn(Cc3ccc4c(c3)OCO4)c-2n1` [6-amino-3(3,4-methylenedioxybenzyl)-8-isopropyl-3H-purine]: the IC50 is 4.1 µM.

As to `C=C(C)c1nc2c(N)ncn(Cc3ccc(OC)c(OC)c3)c-2n1` [6-Amino-3-(3,4-dimethyoxybenzyl)-8-(1-methylethenyl)-3H-purine], the IC50 was 3.7 µM.

On to `COc1ccc(Cn2cnc(N)c3nc(C(C)(C)O)nc2-3)cc1OCCCCO` [6-amino-3-[3-(4-hydroxybutoxy-4-methoxy)benzyl]-8-(1-hydroxy-1-methylethyl)-3H-purine hydrochloride], for which the IC50 was 17.1 µM. As to `CCNc1ncn(Cc2cc[n+]([O-])cc2)c2nc(C(C)C)nc1-2` [6-Ethylamino-3-(1-oxopyridin-4-yl-methyl)-8-isopropyl-3H-purine], the IC50 was 385 µM. Take `CCNc1ncn(Cc2ccc(OC)c(O)c2)c2nc(C(C)C)nc1-2` [6-ethylamino-3-(3-hydroxy-4-methoxybenzyl)-8-isopropyl-3H-purine]: the IC50 was 2.73 µM. On to `CCNc1ncn(Cc2ccc(OC)c(OCC3CCCC3)c2)c2nc(C(C)C)nc1-2` [6-Ethylamino-3-[3-cyclopentylmethoxy-4-methoxy-benzyl]-8-isopropyl-3H-purine], for which the IC50 was 12.5 µM.

The same experiment, now with this note: dithioxanthines, Table 5; read-out: IC50 PDE IV.
As to `CCn1c(=S)[nH]c(=S)c2[nH]c(C3CC3)nc21` [8-cyclopropyl-3,7-dihydro-3-ethyl-2,6-dithio-1H-purine-2,6-dione], the IC50 amounted to 6.18 µM. With `CC(C)c1nc2c([nH]1)c(=S)[nH]c(=S)n2Cc1ccc(Cl)cc1` [3-(4-chlorobenzyl)-8-isopropyl)-3,7 dihydro-2,6-dithio-3,7-purine-2,6-dione], the IC50 amounted to 2.4 µM. Take `CC(C)c1nc2c([nH]1)c(=S)[nH]c(=S)n2Cc1ccccc1Cl` [3-(2-chlorobenzyl)-3,7-dihydro-8-isopropyl-2,6-dithio-1H-purine-2,6-dione]: the IC50 was 7.74 µM. Consider `CCCCn1c(=S)[nH]c(=S)c2[nH]c(C(C)C)nc21` [3-butyl-3,7-dihydro-8-(1-methylethyl)-2,6-dithio-1H-purine-2,6-dione], for which the IC50 came to 5.93 µM.

On to `CCCn1c(=S)[nH]c(=S)c2[nH]c(C(C)C)nc21` [3,7-dihydro-8-isopropyl-3-propyl-2,6-dithio-1H-purine-2,6-dione], for which the IC50 is 3.5 µM. In the case of `CCCn1c(=S)[nH]c(=S)c2[nH]c(C3CC3)nc21` [8-cyclopropyl-3,7-dihydro-3-propyl-2,6-dithio-1H-purine-2,6-dione], the IC50 is 64.5 µM.

As for `CC(C)CCn1c(=S)[nH]c(=S)c2[nH]c(C3CC3)nc21` [8-cyclopropyl-3,7-dihydro-3-(3-methylbutyl)-2,6-dithio-1H-purine-2,6-dione], the IC50 stood at 6.31 µM. Turning to `S=c1[nH]c(=S)n(CC2CCCCC2)c2nc(C3CC3)[nH]c12` [3-cyclohexylmethyl-8-cyclopropyl-3,7-dihydro-2,6-dithio-1H-purine-2,6-dione], the IC50 was 3.03 µM.

Staying with this experiment, now noted: read-out: PDE IV I50.
Turning to `CC(C)c1nc2c([nH]1)c(=S)[nH]c(=S)n2Cc1ccc(Cl)cc1` [3-(4-chlorobenzyl)-8-isopropyl)-3,7 dihydro-2,6-dithio-3,7-purine-2,6-dione], the IC50 stood at 2.27 µM. The same measure, in the same setting: then `CCn1c(=S)c2[nH]c(C3CC3)nc2n(CC)c1=S` [8-cyclopropyl-3,7-dihydro-1,3-diethyl-2,6-dithio-1H-purin-2,6-dione], with 0.42 µM; and `CCCn1c(=S)nc(NCCO)c2[nH]c(C3CC3)nc21` [8-cyclopropyl-3,7-dihydro-6-(2-hydroxyethylamino)-3-propyl-2-thio-2H-purin-2-one], with 4.48 µM. Take `CCNc1ncn(Cc2ccc(OC)c(OC3CCCC3)c2)c2ncnc1-2` [3-(3-Cyclopentyloxy-4-methoxybenzyl)-6-ethylamino-3H-purine Hydrochloride]: the IC50 was found to be 2.15 µM.

The same experiment, now with this note: thioisoguanines, Table 2; cyclic AMP 0.2 μM; read-out: Calc IC50 PDE IV.
With `CCCCn1c(=S)nc(NCC)c2[nH]c(C3CC3)nc21` [3-butyl-8-cyclopropyl-3,7-dihydro-6-ethylamino-2-thio-2H-purin-2-one], the IC50 is 34.9 µM.

As to `CCNc1nc(=S)n(Cc2ccccc2)c2nc(C(C)C)[nH]c12` [3-benzyl-6-ethylamino-3,7-dihydro-8-(1-methyl-ethyl)-2-thio-2H-purin-2-one], the IC50 was 28.4 µM.

On to `CCn1c(=S)nc(NC2CCCC2)c2[nH]c(C3CC3)nc21` [3-ethyl-6-cyclopentylamino-8-cyclopropyl-3,7-dihydro-2-thio-2H-purin-2-one], for which the IC50 is 0.19 µM. Regarding `CCCCNc1nc(=S)n(CCC)c2nc(C3CC3)[nH]c12` [6-butylamino-8-cyclopropyl-3,7-dihydro-3-propyl-2-thio-2H-purin-2-one], the IC50 was 24.5 µM. `CCCn1c(=S)nc(NCCO)c2[nH]c(C3CC3)nc21` [8-cyclopropyl-3,7-dihydro-6-(2-hydroxyethylamino)-3-propyl-2-thio-2H-purin-2-one]: the IC50 is 53.8 µM. The same measure, in the same setting: the value for `CCCn1c(=S)nc(NC2CCCC2)c2[nH]c(C(C)C)nc21` [6-cyclopentylamino-3,7-dihydro-8-isopropyl-3-propyl-2-thio-2H-purin-2-one] was 45.1 µM; that for `CCCNc1nc(=S)n(CC2CC2)c2nc(C(C)C)[nH]c12` [3-(cyclopropylmethyl)-3,7-dihydro-8-(1-methyl-ethyl)-6-propylamino-2-thio-2H-purin-2-one hydrochloride] was 23.9 µM.

(Values after patent US6413975B1, “Purine derivatives having phosphodiesterase iv inhibition activity” (Euro-Celtique, S.A., priority 1999, dated 2002).)
